Legend:
GST-TC-PTP = target: T1, GST-TC-PTP (Homo sapiens, UniProt P17706); experiment: in vitro phosphatase assay, TC-PTP; format: biochemical; conditions: for inhibition of TC-PTP: FIG. 4
T1 construct: purchased Biomol International, L.P. (Plymouth Meeting, Pa.)
T1 sequence (P17706 1-415): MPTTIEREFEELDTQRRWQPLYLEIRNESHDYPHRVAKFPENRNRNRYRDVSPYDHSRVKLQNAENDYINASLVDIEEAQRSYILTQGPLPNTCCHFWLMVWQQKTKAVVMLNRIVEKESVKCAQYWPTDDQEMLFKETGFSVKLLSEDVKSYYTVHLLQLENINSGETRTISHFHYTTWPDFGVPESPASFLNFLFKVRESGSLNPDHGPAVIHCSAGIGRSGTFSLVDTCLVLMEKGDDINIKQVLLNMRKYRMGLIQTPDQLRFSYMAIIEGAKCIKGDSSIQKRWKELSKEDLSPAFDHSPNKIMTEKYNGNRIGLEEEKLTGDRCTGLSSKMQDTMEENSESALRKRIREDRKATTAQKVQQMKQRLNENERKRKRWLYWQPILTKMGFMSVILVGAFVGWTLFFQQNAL
Protocol: Candidate compounds were screened using the in vitro protein tyrosine phosphatase (PTP) assay kit (Sigma, St. Lois, Mo.). […] The assay determines free phosphate generated by dephosphorylation of the PTP substrate using the Malachite Green reagent. Briefly, 0.5 μg of GST-SHP-2 PTP was incubated in 40 μL assay buffer (25 mM Tris-HCl, PH7.4, 50 mM NaCl, 5 mM DTT, and 2.5 mM EDTA) with test compounds at various concentrations or DMSO at room temperature for 30 min. The PTP substrate was then added to a final concentration of 0.2 mM. The system was incubated at 30° C. for 30 min. Finally, 50 μl of Malachite Green solution was added and OD620 was measured after 5 min. In the phosphatase assays for SHP-1, CD45, TC-PTP, PTP-MEG2 (PTPN9), and LAR (PTPRF), procedures were similar, with the exception that GST-SHP-1, GST-CD45 cytoplasmic domain, GST-TC-PTP, GST-PTP-MEG2 PTP domain, and GST-LAR PTP domain purchased from Biomol International, L.P. (Plymouth Meeting, Pa.) were used instead as the enzymes.

Ba/F3 cells = experiment: Ba/F3 cell proliferation assay (IL-3, MTS); format: cell-based, murine
Protocol: To test the effects of the active compounds on IL-3-induced cellular response, Ba/F3, an IL-3 dependent murine pro-B lymphoma cell line, was used for the assay. Ba/F3 cells were seeded into 96-well plates (2×10^4 cells/well) in the RPMI-1640 medium supplemented with 10% fetal bovine serum (FBS), recombinant mouse IL-3 (1 ng/mL), and test compounds ([…]). Three days later, cell number was determined using the MTS cell proliferation kit (Promega Life Science, Madison, Wis.).
To test the effects of the active compounds on SHP-2-mediated cellular proliferation, Ba/F3, an IL-3 dependent hematopoietic cell line, mouse embryonic fibroblasts (MEFs), and H661 lung cancer cell line with SHP-2 activating mutation N58S were used for the assays. Cells were seeded into 96-well plates (2×10^4 cells/well) in the RPMI-1640 (for Ba/F3 cells) or DMEM (for MEFs and H661 cells) medium supplemented with 10% fetal bovine serum (FBS) and test compounds at various concentrations. For the Ba/F3 cell assay, recombinant mouse IL-3 (1 ng/mL) was included in the culture medium. Two days later, cell number was determined using the MTS cell proliferation kit (Promega Life Science, Madison, Wis.).

GST-SHP-1 = target: T2, GST-SHP-1 (Homo sapiens, UniProt P29350); experiment: in vitro phosphatase assay, SHP-1; format: biochemical; conditions: for functional specificity SHP-2 vs. SHP-1: phosphatase assays at the indicated concentrations
T2 construct: purchased Biomol International, L.P. (Plymouth Meeting, Pa.)
T2 sequence (P29350 whole entry): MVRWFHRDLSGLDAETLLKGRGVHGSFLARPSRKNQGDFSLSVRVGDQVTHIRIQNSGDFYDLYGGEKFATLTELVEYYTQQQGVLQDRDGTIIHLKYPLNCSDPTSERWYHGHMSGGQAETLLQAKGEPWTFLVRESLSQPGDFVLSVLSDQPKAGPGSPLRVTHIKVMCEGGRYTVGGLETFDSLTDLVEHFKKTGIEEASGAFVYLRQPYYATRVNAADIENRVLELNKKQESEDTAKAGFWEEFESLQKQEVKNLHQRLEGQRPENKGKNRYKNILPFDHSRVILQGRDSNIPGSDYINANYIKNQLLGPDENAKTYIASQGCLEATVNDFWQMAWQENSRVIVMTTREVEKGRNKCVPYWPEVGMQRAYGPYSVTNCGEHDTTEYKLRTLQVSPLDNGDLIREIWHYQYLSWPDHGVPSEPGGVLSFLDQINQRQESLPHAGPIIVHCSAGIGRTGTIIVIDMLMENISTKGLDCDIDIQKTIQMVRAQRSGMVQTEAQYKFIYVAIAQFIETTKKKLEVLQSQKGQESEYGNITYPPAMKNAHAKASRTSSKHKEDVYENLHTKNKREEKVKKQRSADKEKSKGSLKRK
From the text: (§1) Candidate compounds were screened using the in vitro protein tyrosine phosphatase (PTP) assay kit (Sigma, St. Lois, Mo.). SHP-2 PTP domain GST fusion protein purified in house was used as the enzyme and a phospho-peptide corresponding to the surrounding sequence of pTyr^1146 in the insulin receptor (Thr-Arg-Asp-Ile-Tyr[PO3H2]-Glu-Thr-Asp-Tyr-Tyr) were used as the substrate. The assay determines free phosphate generated by dephosphorylation of the PTP substrate using the Malachite Green reagent. Briefly, 0.5 μg of GST-SHP-2 PTP was incubated in 40 μL assay buffer (25 mM Tris-HCl, PH7.4, 50 mM NaCl, 5 mM DTT, and 2.5 mM EDTA) with test compounds at various concentrations or DMSO at room temperature for 30 min. The PTP substrate was then added to a final concentration of 0.2 mM. The system was incubated at 30° C. for 30 min. Finally, 50 μl of Malachite Green solution was added and OD620 was measured after 5 min. In the phosphatase assays for SHP-1, CD45, TC-PTP, PTP-MEG2 (PTPN9), and LAR (PTPRF), procedures were similar, with the exception that GST-SHP-1, GST-CD45 cytoplasmic domain, GST-TC-PTP, GST-PTP-MEG2 PTP domain, and GST-LAR PTP domain purchased from Biomol International, L.P. (Plymouth Meeting, Pa.) were used instead as the enzymes.

[1] = target: T3, SHP-2 PTP domain GST fusion protein (Homo sapiens, UniProt Q06124); experiment: in vitro protein tyrosine phosphatase assay, SHP-2 (Malachite Green); format: biochemical; parameters: SHP-2 PTP domain GST fusion protein purified in house was used as the enzyme; made in house; conditions: for inhibition at 100 µM: compound at 100 μM, read-out: inhibition of SHP-2 enzymatic activity
T3 sequence (Q06124 247-517 limits assumed): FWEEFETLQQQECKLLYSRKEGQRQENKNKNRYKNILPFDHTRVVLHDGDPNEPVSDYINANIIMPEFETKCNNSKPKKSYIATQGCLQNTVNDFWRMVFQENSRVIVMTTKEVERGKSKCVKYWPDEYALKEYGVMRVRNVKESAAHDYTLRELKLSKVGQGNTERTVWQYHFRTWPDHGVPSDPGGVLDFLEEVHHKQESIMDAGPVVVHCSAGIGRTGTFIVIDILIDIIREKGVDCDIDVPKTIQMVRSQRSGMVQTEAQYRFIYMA
From the text: as §1
Candidate compounds identified by CADD were screened by the in vitro tyrosine phosphatase assay as described in the Experimental Section. The GST-SHP-2 PTP domain fusion protein was incubated with the compounds at room temperature for 30 min before the phospho-peptide substrate was added to the assay systems, allowing compounds to bind to target sites in SHP-2. Each test compound was dissolved in DMSO. Initial concentration of the test compounds was 100 μM. In the experimental assay, DMSO was included as the negative control and sodium orthovanadate (100 μM), a general non-specific tyrosine phosphatase inhibitor, was used as the positive control. From the 165 commercially available compounds tested, we identified 9 compounds that inhibit SHP-2 catalytic activity with various efficiencies (FIG. 3A). […] The inhibitory effects of the compounds were dose-dependent.

| SMILES | inhibition of TC-PTP (GST-TC-PTP) | acute cytotoxicity (Ba/F3 cells) | functional specificity SHP-2 vs. SHP-1 (GST-SHP-1) | inhibition at 100 µM [1] | IC50 (GST-TC-PTP) | SHP-2 mediated proliferative response to IL-3 (Ba/F3 cells; IL-3 1 ng/mL, 48 hours) | IC50 (GST-SHP-1; read-out: IC50 SHP1) | selectivity for SHP-2 compared to other PTPases ([1]; Table 1 and FIG. 10) | IC50 ([1]; read-out: IC50 SHP2) | IL-3-stimulated cell growth (Ba/F3 cells; 100 or 200 μM, IL-3 1 ng/mL, 72 hours) |
| --- | --- | --- | --- | --- | --- | --- | --- | --- | --- | --- |
| Cc1cc(C)c2c(c1)[nH]c1nnc(SCC(=O)NCc3cccs3)nc12 [#220] | slight inhibition | modest acute cytotoxicity | selectively inhibited SHP-2 vs. SHP-1 | 50% | – | – | – | – | – | – |
| Cc1cc(C)c2[nH]c3nc(SCC(=O)Nc4cccc5ccccc45)nnc3c2c1 [#324] | – | – | high functional specificity for SHP-2 over SHP-1 | – | 39.9 µM | inhibit | 37.7 µM | selectively inhibits SHP-2 compared to other PTPases | 13.9 µM | – |
| NS(=O)(=O)c1ccc(CCNC(=O)c2ccc(Cn3c(=S)[nH]c4ccc(Br)cc4c3=O)cc2)cc1 [#216] | slight inhibition | – | selectively inhibited SHP-2 vs. SHP-1 | 55% | – | – | – | – | – | greatly decreased |

Source: patent US8673913B2, “SHP-2 phosphatase inhibitor” (Case Western Reserve University, priority 2009, dated 2014)
